What was measured:
BV-2 = assay: Inhibition of NO production in LPS-induced mouse BV-2 cells incubated for 24 hrs by Griess reagent based microplate reader analysis; type: functional, cell-based; conditions: BV-2, 24 h
D(1A) dopamine receptor = D(1A) dopamine receptor (Homo sapiens, UniProt P21728); assay: Antagonist activity at D1R (unknown origin) transfected in HEK293 cells by FLIPR assay
[1] = target: T1, 5-hydroxytryptamine receptor 2C (Homo sapiens, UniProt P28335); assay: Partial agonist activity at human 5-HT2C stably transfected in HEK293T cells measured after 18 to 24 hrs by FLIPR assay; type: functional, cell-based
T1 sequence (P28335 whole entry): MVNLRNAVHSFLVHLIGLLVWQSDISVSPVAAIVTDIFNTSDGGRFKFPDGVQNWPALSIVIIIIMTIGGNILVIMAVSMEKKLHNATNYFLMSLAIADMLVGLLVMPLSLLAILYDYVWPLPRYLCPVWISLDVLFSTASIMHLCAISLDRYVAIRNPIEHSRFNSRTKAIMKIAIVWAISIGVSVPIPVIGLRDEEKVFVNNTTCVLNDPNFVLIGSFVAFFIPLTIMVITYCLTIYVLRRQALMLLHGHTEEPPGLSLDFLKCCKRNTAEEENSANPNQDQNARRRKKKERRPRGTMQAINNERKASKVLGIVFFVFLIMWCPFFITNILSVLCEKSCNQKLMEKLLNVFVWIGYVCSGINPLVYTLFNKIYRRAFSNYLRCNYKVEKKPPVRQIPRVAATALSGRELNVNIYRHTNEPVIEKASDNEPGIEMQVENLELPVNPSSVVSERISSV

[2] = target: T2, 5-hydroxytryptamine receptor 2C (Homo sapiens) (UniProt P28335); assay: Partial agonist activity at human 5-HT2C stably transfected in HEK293T cells measured after 18 to 24 hrs by FLIPR assay relative to control; type: functional, cell-based; conditions: filed as partial agonist, time 18-24 hrs
T2 sequence (whole entry): T1 sequence (P28335 whole entry)

[3] = target: 5-hydroxytryptamine receptor 7 (Rattus norvegicus, UniProt P32305); assay: Displacement of [3H]5-HT from rat 5-HT7 assessed as inhibition constant
Cholinesterase = Cholinesterase (Equus caballus, UniProt P81908); assay: Inhibition of equine serum BuChE using BTCI as substrate pre-incubated for 10 mins followed by substrate addition measured after 5 mins by microplate reader analysis
Acetylcholinesterase = Acetylcholinesterase (Electrophorus electricus, UniProt O42275); assay: Inhibition of Electrophorus electricus AChE using ATCI as substrate pre-incubated for 10 mins followed by substrate addition measured after 5 mins by microplate reader analysis
[4] = target: T3, 5-hydroxytryptamine receptor 2A (Homo sapiens, UniProt P28223); assay: Antagonist activity at 5-HT2A (unknown origin) transfected in HEK293 cells by FLIPR assay; type: functional, cell-based
D(2) dopamine receptor [5] = target: T4, D(2) dopamine receptor (Homo sapiens, UniProt P14416); assay: Antagonist activity at D2R (unknown origin); type: functional
SH-SY5Y = assay: Neuroprotective activity against human SH-SY5Y cells assessed as increase in BDNF level at 20 uM measured after 48 hrs relative to control; type: functional
[6] = target: T1, 5-hydroxytryptamine receptor 2C; assay: Agonist activity at 5-HT2C (unknown origin); type: functional
[7] = target: T3, 5-hydroxytryptamine receptor 2A; assay: Agonist activity at 5-HT2A (unknown origin); type: functional
[8] = target: T5, 5-hydroxytryptamine receptor 2B (Homo sapiens, UniProt P41595); assay: Agonist activity at 5-HT2B (unknown origin); type: functional
[9] = Selectivity index, ratio of EC50 for agonist activity at 5-HT2C (unknown origin) to EC50 for agonist activity at 5-HT2A (unknown origin)
[10] = target: T3, 5-hydroxytryptamine receptor 2A; assay: Agonist activity at 5-HT2A (unknown origin) relative to control; type: functional; conditions: filed as agonist
[11] = target: T2, 5-hydroxytryptamine receptor 2C (Homo sapiens); assay: Agonist activity at 5-HT2C (unknown origin) relative to control; type: functional; conditions: filed as agonist
[12] = target: T5, 5-hydroxytryptamine receptor 2B; assay: Agonist activity at 5-HT2B (unknown origin) relative to control; type: functional; conditions: filed as agonist
[13] = Selectivity index, ratio of EC50 for agonist activity at 5-HT2C (unknown origin) to EC50 for agonist activity at 5-HT2B (unknown origin)
D(2) dopamine receptor [14] = target: T4, D(2) dopamine receptor; assay: Partial agonist activity at D2R (unknown origin) expressed in HEK293 cells relative to control; type: functional, cell-based; conditions: filed as partial agonist
[15] = target: T1, 5-hydroxytryptamine receptor 2C; assay: Antagonist activity at 5-HT2C (unknown origin); type: functional
[16] = target: 5-hydroxytryptamine receptor 7 (Homo sapiens, UniProt P34969); assay: Inverse agonist activity at 5-HT7 (unknown origin); type: functional
[17] = target: T3, 5-hydroxytryptamine receptor 2A; assay: Inverse agonist activity at 5-HT2A (unknown origin); type: functional
[18] = target: T2, 5-hydroxytryptamine receptor 2C (Homo sapiens); assay: Agonist activity at recombinant human 5-HT2C stably expressed in human T-REx-293 cells measured after 60 mins by FLIPR assay relative to control; type: functional, cell-based; conditions: filed as agonist
[19] = target: T1, 5-hydroxytryptamine receptor 2C; assay: Agonist activity at recombinant human 5-HT2C stably expressed in human T-REx-293 cells measured after 60 mins by FLIPR assay; type: functional, cell-based

Sequence of Cholinesterase (P81908 whole entry): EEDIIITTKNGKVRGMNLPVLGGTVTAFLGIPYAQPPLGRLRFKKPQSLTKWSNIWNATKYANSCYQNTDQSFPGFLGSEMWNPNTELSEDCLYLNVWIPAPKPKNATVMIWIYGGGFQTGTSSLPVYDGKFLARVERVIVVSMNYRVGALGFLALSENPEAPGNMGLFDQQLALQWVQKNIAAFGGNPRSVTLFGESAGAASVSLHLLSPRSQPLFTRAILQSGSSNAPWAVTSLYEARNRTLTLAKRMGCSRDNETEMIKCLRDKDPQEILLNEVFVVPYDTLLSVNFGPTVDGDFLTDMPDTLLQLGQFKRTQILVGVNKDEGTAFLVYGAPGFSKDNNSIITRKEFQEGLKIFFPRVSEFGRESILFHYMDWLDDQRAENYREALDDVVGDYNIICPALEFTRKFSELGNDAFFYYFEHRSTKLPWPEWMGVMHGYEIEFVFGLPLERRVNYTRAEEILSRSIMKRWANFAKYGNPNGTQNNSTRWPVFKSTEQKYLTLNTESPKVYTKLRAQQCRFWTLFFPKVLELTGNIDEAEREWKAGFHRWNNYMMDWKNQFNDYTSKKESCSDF
T3 sequence (P28223 whole entry): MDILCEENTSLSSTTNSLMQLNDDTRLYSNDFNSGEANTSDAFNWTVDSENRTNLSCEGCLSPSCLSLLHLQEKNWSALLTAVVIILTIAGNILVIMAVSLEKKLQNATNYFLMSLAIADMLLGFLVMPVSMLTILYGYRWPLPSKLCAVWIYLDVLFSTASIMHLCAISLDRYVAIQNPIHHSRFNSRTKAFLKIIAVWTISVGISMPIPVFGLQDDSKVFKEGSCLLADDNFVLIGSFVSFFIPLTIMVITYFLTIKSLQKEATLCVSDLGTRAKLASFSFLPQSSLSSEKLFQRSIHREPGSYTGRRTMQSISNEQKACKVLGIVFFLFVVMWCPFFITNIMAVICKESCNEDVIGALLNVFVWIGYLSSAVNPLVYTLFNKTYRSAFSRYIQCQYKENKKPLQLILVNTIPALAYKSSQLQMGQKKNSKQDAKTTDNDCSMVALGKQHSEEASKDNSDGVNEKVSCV
T4 sequence (P14416 whole entry): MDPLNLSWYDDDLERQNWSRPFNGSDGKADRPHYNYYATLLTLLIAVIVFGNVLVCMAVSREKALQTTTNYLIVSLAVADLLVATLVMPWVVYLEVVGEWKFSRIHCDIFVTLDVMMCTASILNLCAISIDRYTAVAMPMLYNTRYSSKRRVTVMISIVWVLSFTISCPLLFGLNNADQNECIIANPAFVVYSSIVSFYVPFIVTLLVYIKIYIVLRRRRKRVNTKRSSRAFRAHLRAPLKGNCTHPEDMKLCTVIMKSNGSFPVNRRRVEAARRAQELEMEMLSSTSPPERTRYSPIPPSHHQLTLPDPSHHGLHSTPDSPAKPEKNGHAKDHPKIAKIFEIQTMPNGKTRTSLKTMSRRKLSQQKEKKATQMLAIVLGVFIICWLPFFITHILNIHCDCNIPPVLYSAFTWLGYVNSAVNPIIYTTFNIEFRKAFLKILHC
Sequence of Acetylcholinesterase (O42275 whole entry): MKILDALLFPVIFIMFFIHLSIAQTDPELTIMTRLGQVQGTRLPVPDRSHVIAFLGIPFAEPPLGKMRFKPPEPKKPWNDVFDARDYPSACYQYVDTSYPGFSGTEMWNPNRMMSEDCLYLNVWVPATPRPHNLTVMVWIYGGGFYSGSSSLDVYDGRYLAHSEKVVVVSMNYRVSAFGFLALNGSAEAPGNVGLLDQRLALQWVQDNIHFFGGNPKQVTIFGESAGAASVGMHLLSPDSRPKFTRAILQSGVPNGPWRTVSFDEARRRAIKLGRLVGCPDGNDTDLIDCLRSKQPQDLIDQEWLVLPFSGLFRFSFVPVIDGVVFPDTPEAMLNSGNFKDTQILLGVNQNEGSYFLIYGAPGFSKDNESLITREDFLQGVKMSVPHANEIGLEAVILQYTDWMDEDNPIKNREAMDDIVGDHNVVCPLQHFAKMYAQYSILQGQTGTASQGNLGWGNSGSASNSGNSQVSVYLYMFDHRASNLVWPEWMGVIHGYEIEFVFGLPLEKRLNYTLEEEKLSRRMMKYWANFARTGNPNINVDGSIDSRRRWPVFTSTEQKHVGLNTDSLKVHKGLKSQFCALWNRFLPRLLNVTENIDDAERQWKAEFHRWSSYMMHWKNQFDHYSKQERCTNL
Sequence of D(1A) dopamine receptor (P21728 whole entry): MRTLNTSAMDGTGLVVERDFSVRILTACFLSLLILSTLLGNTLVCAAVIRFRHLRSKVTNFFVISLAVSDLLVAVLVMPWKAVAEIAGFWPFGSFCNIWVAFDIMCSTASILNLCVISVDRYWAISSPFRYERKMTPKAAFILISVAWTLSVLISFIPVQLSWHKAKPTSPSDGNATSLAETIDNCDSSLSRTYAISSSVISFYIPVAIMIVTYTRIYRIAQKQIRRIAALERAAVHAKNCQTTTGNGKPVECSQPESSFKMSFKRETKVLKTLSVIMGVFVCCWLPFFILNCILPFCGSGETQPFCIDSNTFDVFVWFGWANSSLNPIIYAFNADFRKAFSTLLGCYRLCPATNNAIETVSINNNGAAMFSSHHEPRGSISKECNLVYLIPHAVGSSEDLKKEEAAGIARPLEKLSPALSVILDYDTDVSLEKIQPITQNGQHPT
T5 sequence (P41595 whole entry): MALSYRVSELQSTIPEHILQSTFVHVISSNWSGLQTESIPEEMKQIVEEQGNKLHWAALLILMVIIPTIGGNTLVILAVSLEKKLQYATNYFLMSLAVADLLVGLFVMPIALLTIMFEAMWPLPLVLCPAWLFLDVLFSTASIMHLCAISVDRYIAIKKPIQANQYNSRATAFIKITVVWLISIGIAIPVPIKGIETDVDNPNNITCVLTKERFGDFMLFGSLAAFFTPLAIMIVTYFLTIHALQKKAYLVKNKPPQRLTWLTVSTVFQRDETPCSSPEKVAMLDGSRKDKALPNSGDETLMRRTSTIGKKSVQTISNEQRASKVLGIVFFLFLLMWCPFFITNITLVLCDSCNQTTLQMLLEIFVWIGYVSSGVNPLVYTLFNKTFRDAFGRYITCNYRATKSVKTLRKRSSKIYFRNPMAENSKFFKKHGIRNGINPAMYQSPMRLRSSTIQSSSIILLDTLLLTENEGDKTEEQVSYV
Sequence of 5-hydroxytryptamine receptor 7 (Rattus norvegicus, UniProt P32305) (P32305 whole entry): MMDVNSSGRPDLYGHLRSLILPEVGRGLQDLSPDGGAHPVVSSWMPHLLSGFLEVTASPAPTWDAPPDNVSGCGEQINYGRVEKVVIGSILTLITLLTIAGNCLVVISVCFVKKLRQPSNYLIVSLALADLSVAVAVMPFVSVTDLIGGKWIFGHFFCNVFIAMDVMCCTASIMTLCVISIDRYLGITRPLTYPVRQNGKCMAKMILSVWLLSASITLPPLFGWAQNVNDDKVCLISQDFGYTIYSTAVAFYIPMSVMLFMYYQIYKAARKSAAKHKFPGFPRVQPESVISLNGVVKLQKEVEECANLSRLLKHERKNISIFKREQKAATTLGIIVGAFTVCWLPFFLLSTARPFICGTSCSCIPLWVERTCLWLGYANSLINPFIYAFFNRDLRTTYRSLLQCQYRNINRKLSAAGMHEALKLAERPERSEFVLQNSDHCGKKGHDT
Sequence of 5-hydroxytryptamine receptor 7 (Homo sapiens, UniProt P34969) (P34969 whole entry): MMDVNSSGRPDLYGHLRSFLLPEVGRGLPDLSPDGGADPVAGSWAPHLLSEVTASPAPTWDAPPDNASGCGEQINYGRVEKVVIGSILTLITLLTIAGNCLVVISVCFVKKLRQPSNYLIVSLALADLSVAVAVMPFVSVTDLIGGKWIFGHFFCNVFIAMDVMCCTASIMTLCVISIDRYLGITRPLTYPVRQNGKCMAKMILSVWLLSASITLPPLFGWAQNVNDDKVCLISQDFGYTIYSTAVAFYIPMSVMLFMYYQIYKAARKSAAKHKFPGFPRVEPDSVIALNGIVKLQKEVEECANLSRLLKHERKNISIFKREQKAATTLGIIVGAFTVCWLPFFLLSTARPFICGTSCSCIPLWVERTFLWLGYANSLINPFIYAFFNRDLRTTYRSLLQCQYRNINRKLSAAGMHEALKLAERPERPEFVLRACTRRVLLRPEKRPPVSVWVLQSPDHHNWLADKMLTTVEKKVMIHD

Q: With `COc1cccc2c1cc1c3c(cc4c(c32)OCO4)CCN1C` as the compound, how does the IC50 (BV-2) read?
A: 30.2 µM

Q: For `COc1cc2c3c(c1OC)-c1ccccc1CC3NCC2` (stereo not given) [NORNUCIFERINE], which IC50 (D(1A) dopamine receptor) is on record?
A: 38.5 µM

Q: What about the EC50 [1] of the same compound?
A: 0.308 µM

Q: What about the Emax [2] of the same compound?
A: 65.6%

Q: For `CN1CCc2ccc3c4c2[C@H]1Cc1cccc(c1-4)C3`, which Ki [3] is on record?
A: 0.0043 µM

Q: For `CN1CCc2cc3c(c4c2[C@H]1[C@H](O)c1ccccc1-4)OCO3`, which IC50 (Cholinesterase) is on record?
A: 7.42 µM

Q: What about the IC50 (Acetylcholinesterase) of the same compound?
A: 17.6 µM

Q: With `COc1cccc2c1[C@@H](O)[C@@H]1c3c(cc4c(c3-2)OCO4)CCN1C` as the compound, how does the IC50 (Cholinesterase) read?
A: 5.87 µM

Q: What about the IC50 (Acetylcholinesterase) of the same compound?
A: 6.12 µM

Q: With `COc1c(O)cc2c3c1-c1ccccc1C[C@H]3NCC2` [(-)-ASIMILOBINE] as the compound, how does the IC50 (D(1A) dopamine receptor) read?
A: 7.2 µM

Q: What about the IC50 (Cholinesterase) of the same compound?
A: 10.1 µM

Q: What about the EC50 [1] of the same compound?
A: 0.653 µM

Q: And the IC50 (Acetylcholinesterase)?
A: 141 µM

Q: With `COc1c(O)cc2c3c1-c1ccccc1CC3N(C)CC2` (stereo not given) as the compound, how does the IC50 [4] read?
A: 19.6 µM

Q: With `CN1CCc2cc3c(c4c2[C@H]1Cc1ccccc1-4)OCO3` as the compound, how does the IC50 (Cholinesterase) read?
A: 2.8 µM

Q: And the IC50 (Acetylcholinesterase)?
A: 8.32 µM

Q: What about the IC50 (D(2) dopamine receptor [5]) of the same compound?
A: 18.8 µM

Q: What about the Activity (SH-SY5Y) of the same compound?
A: 73%

Q: With `Oc1cc2c3c(c1Cl)-c1ccccc1CC3NCC2` (stereo not given) as the compound, how does the EC50 [6] read?
A: 0.0236 µM

Q: What about the EC50 [7] of the same compound?
A: 0.596 µM

Q: And the EC50 [8]?
A: 0.278 µM

Q: And the Ratio EC50 [9]?
A: 25

Q: And the Emax [10]?
A: 44.9%

Q: What about the Emax [11] of the same compound?
A: 102%

Q: And the Emax [12]?
A: 63.5%

Q: And the Ratio EC50 [13]?
A: 12

Q: For `COc1ccc(OC)c2c1C[C@@H]1c3c(cc4c(c3-2)OCO4)CCN1C`, which IC50 (D(2) dopamine receptor [5]) is on record?
A: 18.3 µM

Q: Which Emax (D(2) dopamine receptor [14]) does the source give for `COc1cc2c3c(c1OC)-c1ccccc1CC3N(C)CC2` (stereo not drawn) [(+/-)-NUCIFERINE] here?
A: 67%

Q: What about the IC50 [15] of the same compound?
A: 0.131 µM

Q: What about the EC50 [16] of the same compound?
A: 0.15 µM

Q: And the IC50 [17]?
A: 0.478 µM

Q: For `COc1c2c3c(c4c1OCO4)-c1ccccc1C[C@H]3N(C)CC2`, which IC50 (Cholinesterase) is on record?
A: 104 µM

Q: And the IC50 (Acetylcholinesterase)?
A: 39.8 µM

Q: For `COc1ccc2c3c1-c1ccccc1CC3NCC2` (stereo not given), which Emax [18] is on record?
A: 96%

Q: And the EC50 [19]?
A: 0.103 µM

— ChEMBL document CHEMBL5370537, “Aporphines: A privileged scaffold in CNS drug discovery” (Eur J Med Chem, 2023)
